Data: PMC10977428 (Journal of Parkinson's Disease, 2024)
Read-outs that look alike come from different tables or passages of the source.

How the values were obtained:
PD features = settings: double blind clinical studies; cited from earlier work
c-Abl activation = settings: once-daily oral administration; cited from earlier work
[1] = type: in vivo, human; settings: for concentration at 6 days: human, cerebrospinal fluid, oral
[2] = system: rodent and non-human primates; settings: daily dosing between 13 and 39 weeks duration; cited from earlier work
[3] = 7-day multiple ascending dose; type: in vivo, human; settings: for accumulation of exposures at steady-state: once daily 7 days; for AUC0 - ∞/D / Cmax/D: HV N = 6, mean (SD)
Single ascending dose = type: in vivo, human; settings: for dose linearity of single dose PK: Cmax and AUC0 - inf; for AUC0 - ∞/D / Cmax/D / tlag: fed, older healthy adults N = 6, mean (SD)
[4] = 7-day MAD plasma pharmacokinetics, participants with PD; type: in vivo; settings: human, oral
[5] = system: older healthy adults or participants with PD; experiment: Safety and tolerability; type: in vivo, human
[6] = system: participants with mild-to-moderate PD; experiment: Functional assessments of motor and non-motor features of PD; type: in vivo, human; settings: baseline to Day 7
[7] = system: models of inherited or sporadic Parkinson’s-like disease; settings: once daily oral administration; cited from earlier work
[8] = DAY 1 of 7-day dosing, 12.5 mg once daily, plasma
[9] = DAY 1 of 7-day dosing, 25.0 mg once daily, plasma
[10] = DAY 1 of 7-day dosing, 200 mg once daily, plasma
[11] = DAY 7 of 7-day dosing, 25.0 mg once daily, plasma
[12] = DAY 7 of 7-day dosing, 200.0 mg once daily, plasma
[13] = SAD 12.5 mg single oral dose, plasma
[14] = SAD 25.0 mg single oral dose, plasma
[15] = SAD 37.5 mg single oral dose, plasma
[16] = SAD 75.0 mg single oral dose, plasma
[17] = SAD 100 mg single oral dose, plasma
[18] = SAD 125 mg single oral dose, plasma
[19] = SAD 175 mg single oral dose, plasma
[20] = SAD 250 mg single oral dose, plasma
[21] = SAD 325 mg single oral dose, plasma

SMILES: Cc1cn(-c2cc(NC(=O)c3ccc(C)c(Nc4nccc(-c5cccnc5)n4)c3)cc(C(F)(F)F)c2)cn1 [nilotinib]
- improvement of PD features (PD features): failure

SMILES: Cc1ccc(NC(=O)c2ccc(CN3CCN(C)CC3)cc2)cc1Nc1nccc(-c2cncc(-c3oncc3C)c2)n1 [Risvodetinib]
- effect in the MPTP acute toxicity model (c-Abl activation): blocked disease initiation and progression
- concentration at 6 days ([1]; 25 mg): 4.51 ng/mL
- concentration at 6 days ([1]; 50 mg): 3.07 ng/mL
- concentration at 6 days ([1]; 100 mg): 8.42 ng/mL
- detection in cerebrospinal fluid ([1]; pre-dose on the last dosing day of a 7-day dosing study, older healthy adults and PD participants): detected
- histopathology in the pancreas [2]: no histopathology in the pancreas was observed
- accumulation of exposures at steady-state ([3]; 100 mg or 200 mg, Day 7 comparable to Day 1): little or no accumulation
- AUC0 - ∞/D [3, 8]: 706 (424) h*ng/mL/mg
- Cmax/D [3, 8]: 43.0 (23.1) ng/mL/mg
- AUC0 - ∞/D [3, 9]: 780 (305) h*ng/mL/mg
- Cmax/D [3, 9]: 41.5 (22.3) ng/mL/mg
- AUC0 - ∞/D [3, 10]: 759 (263) h*ng/mL/mg
- Cmax/D [3, 10]: 32.5 (6.4) ng/mL/mg
- AUC0 - ∞/D [3, 11]: 1020 (370) h*ng/mL/mg
- Cmax/D [3, 11]: 70.9 (32.3) ng/mL/mg
- AUC0 - ∞/D [3, 12]: 486 (116) h*ng/mL/mg
- Cmax/D [3, 12]: 29.8 (5.6) ng/mL/mg
- time to steady-state ([3]; doses > 50 mg once daily (higher doses)): within one day
- accumulation of exposures at steady-state ([3]; doses less than or equal to 50 mg): approximately two-fold
- time to steady-state ([3]; doses ≤50 mg once daily): ≤ 5 days
- AUC(0-inf) ([3]; human, plasma, oral, 12.5 mg): 8830 ng·h/mL
- AUC(0-inf) ([3]; human, plasma, oral, 25 mg): 19500 ng·h/mL
- AUC(0-inf) ([3]; human, plasma, oral, 200 mg): 152000 ng·h/mL
- half-life ([3]; human, plasma, oral, half-life, overall statement in discussion): ~24 h
- dose linearity of single dose PK (Single ascending dose): approximately linear between 12.5 mg and 175 mg
- dose linearity of single dose PK (Single ascending dose; listed as risvodetinib (IkT-148009)): approximately linear between 12.5 mg and 200 mg
- AUC0 - ∞/D (Single ascending dose; [13]): 758 (345) h*ng/mL/mg
- Cmax/D (Single ascending dose; [13]): 35.8 (26.6) ng/mL/mg
- tlag (Single ascending dose; [13]): 1.09 (1.48) h
- AUC0 - ∞/D (Single ascending dose; [14]): 936 (314) h*ng/mL/mg
- Cmax/D (Single ascending dose; [14]): 37.8 (13.9) ng/mL/mg
- tlag (Single ascending dose; [14]): 0.614 (0.367) h
- AUC0 - ∞/D (Single ascending dose; [15]): 823 (776) h*ng/mL/mg
- Cmax/D (Single ascending dose; [15]): 36.0 (21.2) ng/mL/mg
- tlag (Single ascending dose; [15]): 0.642 (0.393) h
- AUC0 - ∞/D (Single ascending dose; [16]): 802 (342) h*ng/mL/mg
- Cmax/D (Single ascending dose; [16]): 36.6 (13.6) ng/mL/mg
- tlag (Single ascending dose; [16]): 0.342 (0.143) h
- AUC0 - ∞/D (Single ascending dose; [17]): 1150 (285) h*ng/mL/mg
- Cmax/D (Single ascending dose; [17]): 53.2 (12.8) ng/mL/mg
- tlag (Single ascending dose; [17]): 0.414 (0.350) h
- AUC0 - ∞/D (Single ascending dose; [18]): 879 (370) h*ng/mL/mg
- Cmax/D (Single ascending dose; [18]): 42.3 (10.1) ng/mL/mg
- tlag (Single ascending dose; [18]): 0.306 (0.284) h
- AUC0 - ∞/D (Single ascending dose; [19]): 982 (359) h*ng/mL/mg
- Cmax/D (Single ascending dose; [19]): 35.0 (13.7) ng/mL/mg
- tlag (Single ascending dose; [19]): 0.0944 (0.146) h
- AUC0 - ∞/D (Single ascending dose; [20]): 858 (417) h*ng/mL/mg
- Cmax/D (Single ascending dose; [20]): 28.9 (6.55) ng/mL/mg
- tlag (Single ascending dose; [20]): 0.547 (0.507) h
- AUC0 - ∞/D (Single ascending dose; [21]): 749 (385) h*ng/mL/mg
- Cmax/D (Single ascending dose; [21]): 22.5 (9.71) ng/mL/mg
- tlag (Single ascending dose; [21]): 0.186 (0.250) h
- half-life (Single ascending dose; human, plasma, oral): 24 to 39 h
- AUC(0-inf) ([4]; 50 mg): 24500 ng·h/mL
- AUC(0-inf) ([4]; 100 mg): 68700 ng·h/mL
- Severity of treatment-related adverse event: Dermatitis ([5]; 50 mg, 7-day, 1x/day, PD patients): Mild
- Severity of treatment-related adverse event: Palpitations ([5]; 75 mg, Single Dose, healthy subjects): Mild
- Severity of treatment-related adverse event: Constipation ([5]; 100 mg, 7-day, 1x/day, PD patients): Mild
- Severity of treatment-related adverse event: Elevated Lipase ([5]; 200 mg, 7-day, 1x/day, healthy subjects): Mild
- Severity of treatment-related adverse event: Diarrhea ([5]; 325 mg, Single Dose, healthy subjects): Mild
- deaths and serious adverse events ([5]; 94 healthy subjects and 14 participants with PD): no deaths, no serious adverse events
- adverse events deemed possibly or probably related to the active drug ([5]; among all 36 recorded adverse events, SAD, MAD and MAD-PD, all mild): 11
- QTcF prolongation ([5]; any dose or dose duration): No participants displayed evidence of QTcF prolongation
- orthostatic hypotension, heart rate, heart rhythm, blood pressure ([5]; participants with PD): did not exacerbate pre-existing orthostatic hypotension
- increase of mean score for MDS-UPDRS Part III ([6]; 50 mg once daily 7 days): 6.2 (±9.50) points
- increase of mean score for MDS-UPDRS Part III ([6]; 100 mg once daily 7 days): 7.4 (±14.1) points
- effect in models of inherited or sporadic Parkinson’s-like disease [7]: therapeutically effective
